Reference: paper PMC5823845 (Bioorganic & Medicinal Chemistry, 2018)
Like-named read-outs stand apart in the source and are kept apart here.

What was measured:
mouse RAR beta receptor = target: T1, mouse RAR beta receptor (Mus musculus, UniProt P22605); conditions: ratio of relative EC50s RARβ/RARα
T1 sequence (P22605 210-444 limits assumed): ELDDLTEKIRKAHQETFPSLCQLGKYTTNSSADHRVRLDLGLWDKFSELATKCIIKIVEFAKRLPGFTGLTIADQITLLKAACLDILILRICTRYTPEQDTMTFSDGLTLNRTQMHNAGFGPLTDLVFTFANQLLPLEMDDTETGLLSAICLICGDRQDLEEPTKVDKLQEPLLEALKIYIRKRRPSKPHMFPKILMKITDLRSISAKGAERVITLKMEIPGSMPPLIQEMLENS

mouse RAR gamma receptor = target: T2, mouse RAR gamma receptor (Mus musculus, UniProt P18911)
T2 sequence (P18911 185-419 limits assumed): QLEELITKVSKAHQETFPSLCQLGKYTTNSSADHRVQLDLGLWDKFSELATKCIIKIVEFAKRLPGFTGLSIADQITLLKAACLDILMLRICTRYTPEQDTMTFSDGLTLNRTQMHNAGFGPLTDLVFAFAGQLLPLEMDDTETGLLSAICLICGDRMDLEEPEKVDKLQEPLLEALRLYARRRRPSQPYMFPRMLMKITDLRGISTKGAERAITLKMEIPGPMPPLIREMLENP

[1] = Intrinsic clearance in liver microsomes; assay type: in vitro ADME; conditions: 37 °C, NADPH, 45 min, mean of 5
Experimental: The reaction is terminated by the addition of methanol. Following centrifugation, the supernatant is analyzed on the LC-MS/MS. […] The data is the mean on 5 separate experiments.
The ln peak area ratio (compound peak area/internal standard peak area) is plotted against time and the gradient of the line determined.
(see Supplementary data file for details).

PK studies in rats = assay type: in vivo, Sprague-Dawley rats; conditions: for rat pK AUC po: 10 mg/kg po, 8% Ethanol/92% PEG-400, n = 4; for rat pK Cl: iv 0.5 mg/kg; for rat pK Cl / bioavailability: n = 4; for bioavailability: male, Sprague-Dawley, whole blood, rat, 10 mg/kg po vs 0.5 mg/kg iv, read-out: rat pK F%
Experimental: The Test Items were orally administered at a dose of 10 mg/kg and a dosing volume of 10 mL/kg. […] The Test Items were intravenously administered at a dose of 0.5 mg/kg and a dosing volume of 2 mL/kg. […] Whole blood concentrations of the Test Items were measured using LC-MS/MS and selected pharmacokinetic parameters calculated using Pharsight WinNonLin software. For furthers details see Supplementary data file.

[2] = Log D pH 7.4, octanol/buffer shake flask method
Experimental: Briefly, octanol (pre-saturated with buffer) is added to the test compound and sonicated. Buffer at pH 7.4 (presaturated with octanol) is then added to the octanol. […] The system is mixed to allow distribution of the compound between the two phases.
Log D = Log (Coct / Caq ). Where: Coct = Concentration in octanol sample (corrected for dilution) and Caq = Concentration in aqueous sample (corrected for dilution)

mouse RAR alpha receptor = target: T3, mouse RAR alpha receptor (Mus musculus, UniProt P11416); conditions: relative to the amplitude of the normalizing ATRA output
T3 sequence (P11416 183-417 limits assumed): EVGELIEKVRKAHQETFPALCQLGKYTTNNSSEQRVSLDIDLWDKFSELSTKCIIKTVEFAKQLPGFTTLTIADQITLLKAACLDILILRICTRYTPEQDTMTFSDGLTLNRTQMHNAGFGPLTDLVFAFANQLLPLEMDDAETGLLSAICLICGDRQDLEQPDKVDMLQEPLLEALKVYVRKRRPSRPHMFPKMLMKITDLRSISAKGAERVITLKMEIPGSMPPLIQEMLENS

[3] = mouse, ratio of relative EC50s RARγ/RARα
[4] = liver microsomes, human microsomes
[5] = liver microsomes, mouse microsomes

SMILES | β/α ratio (mouse RAR beta receptor) | γ/α ratio (mouse RAR gamma receptor; [3]) | microsomal CLint [1, 4] [µL/min/mg] | microsomal CLint [1, 5] [µL/min/mg] | logD [2] | other results
CC1(C)CCC(C)(C)c2c1cc(C(=O)Nc1cc(F)c(C(=O)O)c(F)c1)c(O)c2Cl [Compound 4, reference compound] | 141 | – | – | – | – | γ/α ratio (mouse RAR gamma receptor): 867
CCCOc1c(Cl)cc(C(=O)Nc2ccc(C(=O)O)cc2)cc1Cl [Compound 12] | 9.5 | 82 | – | – | – | –
CCCCOc1c(Cl)cc(C(=O)Nc2ccc(C(=O)O)cc2)cc1Cl [Compound 13] | 8.5 | 18 | – | – | – | –
CC(C)Oc1c(Cl)cc(C(=O)Nc2ccc(C(=O)O)cc2)cc1Cl [Compound 14] | 205 | 119 | – | – | – | –
O=C(O)c1ccc(NC(=O)c2cc(Cl)c(OC3CCCC3)c(Cl)c2)cc1 [Compound 15, 4-(3,5-Dichloro-4-(cyclopentyloxy)benzamido)benzoic acid] | – | – | 26 | 83 | 2.8 | rat pK AUC po (PK studies in rats): 1674 ng·min mL^−1; rat pK Cl (PK studies in rats): 2 mL/kg/min; bioavailability (PK studies in rats): 0.3%
CC(C)(C)Oc1c(Cl)cc(C(=O)Nc2ccc(C(=O)O)cc2)cc1Cl [Compound 16, 4-(4-(tert-Butoxy)-3,5-dichlorobenzamido)benzoic acid] | – | – | 16 | 91 | 2.6 | –
CCOc1c(Cl)cc(C(=O)Nc2ccc(C(=O)O)c(F)c2)cc1Cl [Compound 17] | 80 | >80 | – | – | – | –
CCOc1c(Cl)cc(C(=O)Nc2ccc(C(=O)O)c(C)c2)cc1Cl [Compound 18, 4-(3,5-Dichloro-4-ethoxybenzamido)-2-methylbenzoic acid] | – | – | 14 | 38 | 1.7 | rat pK AUC po (PK studies in rats): 74,396 ng·min mL^−1; rat pK Cl (PK studies in rats): 1.6 mL/kg/min; bioavailability (PK studies in rats): 12%
CCOc1c(Cl)cc(C(=O)Nc2ccc(C(=O)O)c(O)c2)cc1Cl [Compound 19, 4-(3,5-Dichloro-4-ethoxybenzamido)-2-hydroxybenzoic acid] | 37 | 149 | – | – | – | –
CCOc1c(Cl)cc(C(=O)Nc2ccc(C(=O)O)c(Cl)c2)cc1Cl [Compound 20] | 64 | >50 | – | – | – | –
CCOc1c(Cl)cc(C(=O)Nc2ccc(C(=O)O)c(C(F)(F)F)c2)cc1Cl [Compound 21] | 1.5 | 11 | – | – | – | –
CCOc1c(Cl)cc(NC(=O)c2ccc(C(=O)O)cc2)cc1Cl [Compound 26, 4-(3,5-Dichloro-4-ethoxyphenylcarbamoyl)benzoic acid] | 12 | >3600 | – | – | – | –
CCOc1c(OC2CCCC2)cc(C(=O)Nc2ccc(C(=O)O)cc2)cc1OC1CCCC1 [Compound 32] | 145 | 19 | – | – | – | RARα agonist type (partial / full agonist) (mouse RAR alpha receptor): partial agonist activity
CC(C)Oc1cc(C(=O)Nc2ccc(C(=O)O)cc2)cc(OC(C)C)c1OC(C)C [Compound 33] | 96 | 8 | – | – | – | RARα agonist type (partial / full agonist) (mouse RAR alpha receptor): partial agonist activity
CCOc1cc(C(=O)Nc2ccc(C(=O)O)cc2)cc(OC(C)C)c1OCC [Compound 34] | 84 | 34 | – | – | – | RARα agonist type (partial / full agonist) (mouse RAR alpha receptor): full RARα agonist
O=C(O)c1ccc(NC(=O)c2cc(Cl)c(OC3CCC3)c(OC3CCC3)c2)cc1 [Compound 40] | 22 | 447 | – | – | – | –

SMILES | β/α ratio (mouse RAR beta receptor) | γ/α ratio (mouse RAR gamma receptor; [3]) | microsomal CLint [1, 4] [µL/min/mg] | microsomal CLint [1, 5] [µL/min/mg] | logD [2] | other results
CC(C)(C)Oc1cc(C(=O)Nc2ccc(C(=O)O)cc2)cc(Cl)c1OC(C)(C)C [Compound 41, 4-(3,4-Di-tert-butoxy-5-chlorobenzamido)benzoic acid] | 44 | 189 | – | – | – | –
O=C(O)c1ccc(NC(=O)c2cc(Cl)c(OC3CCCC3)c(OC3CCCC3)c2)cc1 [Compound 42, 4-[3-Chloro-4,5-bis(cyclopentyloxy)benzamido]benzoic acid] | 32 | 336 | – | – | – | –
CC(C)Oc1cc(C(=O)Nc2ccc(C(=O)O)c(F)c2)cc(Cl)c1OC(C)C [Compound 43] | 34 | 300 | 6.9 | 18.8 | 2 | –
Cc1cc(NC(=O)c2cc(Cl)c(OC(C)C)c(OC(C)C)c2)ccc1C(=O)O [Compound 44] | 45 | 2947 | 15 | 26.2 | 2.3 | rat pK AUC po (PK studies in rats): 77,670 ng·min mL^−1; rat pK Cl (PK studies in rats): 5.4 mL/kg/min; bioavailability (PK studies in rats): 66%
Cc1cc(NC(=O)c2cc(Cl)c(OC(C)(C)C)c(OC(C)(C)C)c2)ccc1C(=O)O [Compound 45] | – | 128 | – | – | 2.9 | microsomal CLint ([1]; human microsomes): 28.7 µL/min/mg; microsomal CLint ([1]; mouse microsomes): 36.2 µL/min/mg
CCOc1c(Cl)cc(C(=O)Nc2ccc(C(=O)O)cc2)cc1OC(C)C [Compound 49, 4-(3-Chloro-4-ethoxy-5-isopropoxybenzamido)benzoic acid] | – | – | 11 | 41 | 1.7 | RARα agonist type (partial / full agonist) (mouse RAR alpha receptor): partial agonist
CCOc1cc(C(=O)Nc2ccc(C(=O)O)cc2)cc(Cl)c1OC(C)C [Compound 52] | 3.1 | 570 | – | – | – | –
COc1c(Cl)cc(C(=O)Nc2ccc(C(=O)O)c(F)c2)cc1OC(C)C [Compound 53] | 609 | 17,600 | 0.3 | 11 | 1 | rat pK AUC po (PK studies in rats): 10,871 ng·min mL^−1; rat pK Cl (PK studies in rats): 15 mL/kg/min; bioavailability (PK studies in rats): 15%
CCOc1c(Cl)cc(C(=O)Nc2ccc(C(=O)O)c(F)c2)cc1OC(C)C [Compound 54] | 487 | 6169 | 3.3 | 17.9 | 1.4 | rat pK AUC po (PK studies in rats): 15,376 ng·min mL^−1; rat pK Cl (PK studies in rats): 12 mL/kg/min; bioavailability (PK studies in rats): 12%
COc1c(Cl)cc(C(=O)Nc2ccc(C(=O)O)c(C)c2)cc1OC(C)C [Compound 55] | 241 | 509 | 1.5 | 10.6 | 1.3 | RARα agonist type (partial / full agonist) (mouse RAR alpha receptor): partial RARα agonist activity
CCOc1cc(C(=O)Nc2ccc(C(=O)O)c(C)c2)cc(Cl)c1OC(C)C [Compound 57] | 286 | 1675 | 8.7 | 25.7 | 1.9 | –
CCOc1c(Cl)cc(C(=O)Nc2ccc(C(=O)O)c(C)c2)cc1OC [Compound 58] | 210 | >250 | – | 18.4 | – | –
CCOc1c(Cl)cc(C(=O)Nc2ccc(C(=O)O)c(C)c2)cc1OCC1CC1 [Compound 59] | 58 | 38,461 | – | 42.3 | – | –
O=C(O)c1ccc(NC(=O)c2cc(Cl)c(O)c(Cl)c2)cc1 [Compound 60] | 7 | 55 | – | – | – | –
COc1c(Cl)cc(C(=O)Nc2ccc(C(=O)O)cc2)cc1Cl [Compound 61] | 318 | 195 | – | – | – | –
CCOc1cc(C(=O)Nc2ccc(C(=O)O)cc2)cc(OCC)c1OCC [Compound 62] | 174 | 16 | – | – | – | –
